Test results as given in PubChem BioAssay AID651650 (Sanford-Burnham Center for Chemical Genomics, 2012).
Active and inactive are the calls of the source.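 How the source made its calls: active means mean IC50 below 20 µM in each of the two panels, so potent in both; inactive means the rest.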

Target: Neuropilin-1 (Homo sapiens) (UniProt O14786)
Assay: NRP-1 b1b2 CendR peptide binding inhibitors, dose response, biochemical, FP and AlphaScreen panel (AID 651650)
Details: NRP-1 b1b2 / RPARPAR peptide binding, FP or AlphaScreen
[1] = AlphaScreen, run 1, individual panel run IC50
[2] = FP, run 1, individual panel run IC50
[3] = FP, run 2, individual panel run IC50

Chain of Neuropilin-1 (Homo sapiens) (O14786 whole entry, looked up): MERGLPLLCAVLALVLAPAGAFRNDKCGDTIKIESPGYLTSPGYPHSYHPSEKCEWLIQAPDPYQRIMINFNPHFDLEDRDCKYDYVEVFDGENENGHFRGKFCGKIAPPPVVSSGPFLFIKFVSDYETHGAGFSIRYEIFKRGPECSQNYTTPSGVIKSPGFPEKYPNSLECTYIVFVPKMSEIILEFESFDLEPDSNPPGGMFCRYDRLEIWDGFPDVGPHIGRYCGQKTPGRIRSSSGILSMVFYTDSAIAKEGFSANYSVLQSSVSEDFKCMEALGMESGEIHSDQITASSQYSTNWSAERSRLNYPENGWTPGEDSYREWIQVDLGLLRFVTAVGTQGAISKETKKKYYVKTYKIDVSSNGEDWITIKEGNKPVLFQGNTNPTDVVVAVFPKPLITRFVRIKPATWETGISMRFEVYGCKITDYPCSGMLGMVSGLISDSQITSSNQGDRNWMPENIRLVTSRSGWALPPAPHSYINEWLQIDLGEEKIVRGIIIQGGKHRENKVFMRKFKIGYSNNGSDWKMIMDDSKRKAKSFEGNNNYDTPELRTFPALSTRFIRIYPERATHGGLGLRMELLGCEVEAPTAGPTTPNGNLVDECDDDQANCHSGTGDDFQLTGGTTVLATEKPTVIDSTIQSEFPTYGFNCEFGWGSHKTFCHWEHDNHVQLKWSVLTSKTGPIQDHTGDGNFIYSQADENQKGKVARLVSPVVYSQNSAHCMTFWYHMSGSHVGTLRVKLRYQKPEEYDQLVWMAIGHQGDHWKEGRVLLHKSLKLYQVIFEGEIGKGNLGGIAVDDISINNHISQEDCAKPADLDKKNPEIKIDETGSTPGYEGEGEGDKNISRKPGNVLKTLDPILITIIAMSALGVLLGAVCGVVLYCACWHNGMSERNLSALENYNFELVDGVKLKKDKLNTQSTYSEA

Row | Structure (SMILES) | IC50 (AlphaScreen, mean of runs) | IC50 [1] | IC50 (FP, mean of runs) | IC50 [2] | IC50 [3]
1 | CCOC(=O)c1c2ccc(OCC(=O)NN)cc2n2ccccc12 | > 100 µM (inactive) | > 100 µM | > 95 µM (inactive) | > 95 µM | > 95 µM
2 | CC(C)Cc1ccc(C(C)C(=O)Nc2ccc(O)cc2)cc1 (stereo not given) | > 100 µM (inactive) | > 100 µM | > 95 µM (inactive) | > 95 µM | > 95 µM
3 | COC(=O)Cc1ccc(NC(=S)NCCCO)cc1 | > 100 µM (inactive) | > 100 µM | > 95 µM (inactive) | > 95 µM | > 95 µM
4 | CC(=O)N1CCSc2ccc(S(=O)(=O)Nc3ccc(C)cc3)cc21 | > 100 µM (inactive) | > 100 µM | > 95 µM (inactive) | > 95 µM | > 95 µM
5 | CCOC(=O)[C@@H]1[C@H]2COc3ccccc3[C@@H]2N2C(=O)N(c3ccc(Cl)cc3)C(=O)[C@]12C | 7.51 µM | 7.51 µM | > 95 µM (inactive) | > 95 µM | > 95 µM
6 | COc1cc2oc(=O)ccc2cc1[C@@H](O)[C@@H]1OC(C)(C)OC1(C)C | > 100 µM (inactive) | > 100 µM | > 95 µM (inactive) | > 95 µM | > 95 µM
7 | CNc1nc(-c2ccc3c(c2)CCN3C(=O)c2ccccc2F)cs1 | > 100 µM (inactive) | > 100 µM | > 95 µM (inactive) | > 95 µM | > 95 µM
8 | CN(Cc1ccccc1)C(=O)c1nc[nH]c1C(=O)N1CCN(C(=O)OC(C)(C)C)CC1 | > 100 µM (inactive) | > 100 µM | > 95 µM (inactive) | > 95 µM | > 95 µM
9 | CC(OC(=O)c1ccco1)C(=O)Nc1nc(-c2ccccc2)cs1 (stereo not given) | > 100 µM (inactive) | > 100 µM | > 95 µM (inactive) | > 95 µM | > 95 µM
10 | NS(=O)(=O)c1ccc(CNC(=S)NCc2ccc(F)cc2)cc1 | > 100 µM (inactive) | > 100 µM | > 95 µM (inactive) | > 95 µM | > 95 µM
11 | Cc1ccccc1OCC1Cc2c(nc(N)c(C#N)c2N)O1 (stereo not given) | > 100 µM (inactive) | > 100 µM | > 95 µM (inactive) | > 95 µM | > 95 µM
12 | CC(C)c1ccc(S(=O)(=O)N2CCN(C(=O)CN3C(=O)c4ccccc4C3=O)CC2)cc1 | > 100 µM (inactive) | > 100 µM | > 95 µM (inactive) | > 95 µM | > 95 µM
13 | CCOC(=O)c1ccc(NC(=O)CN2CCc3ccccc3C2)cc1 | > 100 µM (inactive) | > 100 µM | > 95 µM (inactive) | > 95 µM | > 95 µM
14 | Cc1c(NP(=O)(C(C)(C)C)C(C)(C)C)c(=O)n(-c2ccccc2)n1C | > 100 µM (inactive) | > 100 µM | > 95 µM (inactive) | > 95 µM | > 95 µM
15 | CCC1Nc2ncnc(N3CCCCC3)c2N(Cc2ccc(C)cc2)C1=O (stereo not given) | > 100 µM (inactive) | > 100 µM | > 95 µM (inactive) | > 95 µM | > 95 µM
16 | CCOc1ccc(N2C(=O)CC(N3CCN(c4ccc(Cl)cc4)CC3)C2=O)cc1 (stereo not given) | inactive | 22.2 µM | > 95 µM (inactive) | > 95 µM | > 95 µM
17 | CCOC(=O)c1ccc(N2CCN(C(=O)c3ccccc3)CC2)c(NC(=O)c2ccco2)c1 | > 100 µM (inactive) | > 100 µM | > 95 µM (inactive) | > 95 µM | > 95 µM
18 | CC(=O)Nc1cccc(-c2csc(NCc3ccccc3)n2)c1 | > 100 µM (inactive) | > 100 µM | > 95 µM (inactive) | > 95 µM | > 95 µM
19 | CC(O)(c1cccnc1)c1nc(/C=C/c2ccccc2)cs1 (stereo not given) | > 100 µM (inactive) | > 100 µM | > 95 µM (inactive) | > 95 µM | > 95 µM
20 | CCCCN(c1ccccc1)S(=O)(=O)c1ccc2c(c1)CCN2C(=O)CCC(=O)O | > 100 µM (inactive) | > 100 µM | > 95 µM (inactive) | > 95 µM | > 95 µM
21 | O=c1[nH]c(Nc2ccccn2)cc2ccccc12 | 19.5 µM | 19.6 µM | > 95 µM (inactive) | > 95 µM | > 95 µM
22 | COC(=O)C[C@H]1c2cc(F)ccc2S(=O)(=O)N1C(C)C | > 100 µM (inactive) | > 100 µM | > 95 µM (inactive) | > 95 µM | > 95 µM
23 | OCCC1CCCCN1CC(O)COCc1ccc(Cl)cc1 (stereo not given) | > 100 µM (inactive) | > 100 µM | > 95 µM (inactive) | > 95 µM | > 95 µM

Row | Structure (SMILES) | IC50 (AlphaScreen, mean of runs) | IC50 [1] | IC50 (FP, mean of runs) | IC50 [2] | IC50 [3]
24 | O=S(=O)(c1cc(Cl)cc(Cl)c1)N1Cc2cc(-c3ccccc3)ccc2-n2nncc2C1 | > 100 µM (inactive) | > 100 µM | > 95 µM (inactive) | > 95 µM | > 95 µM
25 | O=C1N[C@H](Cc2c[nH]c3ccccc23)COC(=O)[C@H](Cc2ccc(F)cc2)C/C=C\C[C@H]1CC(=O)N(CCO)Cc1ccccc1 | 15 µM | 15 µM | > 95 µM (inactive) | > 95 µM | > 95 µM
26 | N/C(CSc1ccc(Cl)cc1)=N\S(=O)(=O)c1ccc(Cl)cc1 | > 100 µM (inactive) | > 100 µM | > 95 µM (inactive) | > 95 µM | > 95 µM
27 | C=CCC1(CC=C)CCCN1C(=O)c1cc(COc2cccc(OC)c2)on1 | > 100 µM (inactive) | > 100 µM | > 95 µM (inactive) | > 95 µM | > 95 µM
28 | Cn1c(=NC(=O)COc2ccccc2)sc2ccccc21 | > 100 µM (inactive) | > 100 µM | > 95 µM (inactive) | > 95 µM | > 95 µM
29 | C=C[C@]12CC[C@H](OC(C)=O)CC1=CCC1C2CC[C@@]2(C)C1CCC21OCCO1 (stereo not given in full) | > 100 µM (inactive) | > 100 µM | > 95 µM (inactive) | > 95 µM | > 95 µM
30 | CCCN=C1N/C(=C\c2ccco2)C(=O)N1c1ccccc1 | > 100 µM (inactive) | > 100 µM | > 95 µM (inactive) | > 95 µM | > 95 µM
31 | NC(=O)c1c(NC(=O)C(=O)N2CCOCC2)sc2c1CCCC2 | > 100 µM (inactive) | > 100 µM | > 95 µM (inactive) | > 95 µM | > 95 µM
32 | O=C(NCCN1CCN(C(=O)c2cccc(OC(F)F)c2)CC1)c1cccc(OC(F)F)c1 | > 100 µM (inactive) | > 100 µM | > 95 µM (inactive) | > 95 µM | > 95 µM
33 | Cc1cc(=O)n2nc(N3CCCC(C(=O)N4CCOCC4)C3)sc2n1 (stereo not given) | > 100 µM (inactive) | > 100 µM | > 95 µM (inactive) | > 95 µM | > 95 µM
34 | O=C(NCCOC(=O)c1ccccc1)c1ccccc1 | inactive | 45.3 µM | > 95 µM (inactive) | > 95 µM | > 95 µM
35 | CCOC(=O)C(NC(=O)CC(C)C)(Nc1sc(C)c(CC)c1C#N)C(F)(F)F (stereo not given) | > 100 µM (inactive) | > 100 µM | > 95 µM (inactive) | > 95 µM | > 95 µM
36 | CCCCOc1ccc(S(=O)(=O)N2CCN(C)CC2)cc1 | inactive | 76.4 µM | > 95 µM (inactive) | > 95 µM | > 95 µM
37 | C#CCOc1nc(C)cc(C)c1S(=O)(=O)c1ccccc1C | > 100 µM (inactive) | > 100 µM | > 95 µM (inactive) | > 95 µM | > 95 µM
38 | COC(=O)c1ccccc1NC(=O)CSc1nc(C)cc(C)n1 | > 100 µM (inactive) | > 100 µM | > 95 µM (inactive) | > 95 µM | > 95 µM
39 | C/C(=N\NC(=O)c1cc(O)ccc1O)c1cccc(NC(=O)c2cccc(Cl)c2)c1 | > 100 µM (inactive) | > 100 µM | > 95 µM (inactive) | > 95 µM | > 95 µM
40 | NC(=O)C1CCCN(C(=O)c2ccc3nc(Cc4cccc(Cl)c4)oc3c2)C1 (stereo not given) | 10.7 µM | 10.7 µM | > 95 µM (inactive) | > 95 µM | > 95 µM
41 | O=C(/C=C/c1ccco1)N/C(=C\c1ccccc1)C(=O)NCCc1nc2ccccc2[nH]1 | > 100 µM (inactive) | > 100 µM | > 95 µM (inactive) | > 95 µM | > 95 µM
42 | c1ccc2c(CNc3ccc(CNc4ncn[nH]4)cc3)cccc2c1 | > 100 µM (inactive) | > 100 µM | > 95 µM (inactive) | > 95 µM | > 95 µM
43 | CC(C)(C)N(NC(=O)Nc1ccc(Cl)cc1)C(=O)c1ccccc1 | > 100 µM (inactive) | > 100 µM | > 95 µM (inactive) | > 95 µM | > 95 µM
44 | COc1ccc(CCNC(=O)c2c(O)c3cccc4c3n(c2=O)CC4)cc1OC | > 100 µM (inactive) | > 100 µM | > 95 µM (inactive) | > 95 µM | > 95 µM
45 | COc1ccc(-c2[nH]ncc2CN(C)CCc2c(C)n[nH]c2C)c(F)c1 | > 100 µM (inactive) | > 100 µM | > 95 µM (inactive) | > 95 µM | > 95 µM
